From ChEMBL document CHEMBL5512670 (J Med Chem, 2024)

Key:
[1] = Oral bioavailability in Wistar rat plasma at 50 mg/kg administration; format: ADME, organism-based
[2] = AUC (0 to 24 hrs) in C57BL/6 mouse at 50 mg/kg,po administrated upto 24 hrs by LC-MS/MS analysis; format: ADME, organism-based; conditions: in vivo
[3] = Dissociation constant, pKa of the compound; format: physicochemical
[4] = AUC (0 to 24 hrs) in C57BL/6 mouse infected with Clostridioides difficile CD1264 at 10 mg/kg,po administrated upto 24 hrs by LC-MS/MS analysis; format: ADME, organism-based; conditions: in vivo
[5] = Drug metabolism in human Hepatocyte assessed as metabolite formation; format: ADME, cell-based; conditions: hepatocytes
[6] = Drug metabolism in human liver microsomes assessed as metabolite formation; format: ADME, Microsome
[7] = Lipophilicity, logD of the compound at pH 7.4; format: physicochemical; conditions: buffer
[8] = Cmax in C57BL/6 mouse infected with Clostridioides difficile CD1264 at 50 mg/kg,po administrated upto 24 hrs by LC-MS/MS analysis; format: ADME, organism-based; conditions: in vivo
[9] = AUC (0 to 24 hrs) in C57BL/6 mouse infected with Clostridioides difficile CD1264 at 50 mg/kg,po administrated upto 24 hrs by LC-MS/MS analysis; format: ADME, organism-based; conditions: in vivo
[10] = Cmax in C57BL/6 mouse infected with Clostridioides difficile CD1264 at 10 mg/kg,po administrated upto 24 hrs by LC-MS/MS analysis; format: ADME, organism-based; conditions: in vivo
[11] = Volume of distribution at steady state in Wistar rat at 1 mg/kg,po administration; format: ADME, organism-based; conditions: in vivo
[12] = Clearance in Wistar rat blood at 1 mg/kg,po administration; format: ADME, organism-based
[13] = Half life in Wistar rat at 1 mg/kg,po administration; format: ADME, organism-based; conditions: in vivo
[14] = AUC (0 to 24 hrs) in C57BL/6 mouse at 10 mg/kg,po administrated upto 24 hrs by LC-MS/MS analysis; format: ADME, organism-based; conditions: in vivo
[15] = Clearance in Wistar rat plasma at 1 mg/kg,po administration; format: ADME, organism-based
[16] = Cmax in C57BL/6 mouse at 10 mg/kg,po administrated upto 24 hrs by LC-MS/MS analysis; format: ADME, organism-based; conditions: in vivo
[17] = AUC (0 to infinity) in Wistar rat at 1 mg/kg,po administration; format: ADME, organism-based; conditions: in vivo
[18] = Drug concentration in Wistar rat plasma at 50 mg/kg,po administration; format: ADME, organism-based; conditions: in vivo
[19] = Cmax in C57BL/6 mouse at 50 mg/kg,po administrated upto 24 hrs by LC-MS/MS analysis; format: ADME, organism-based; conditions: in vivo

Question: Which results are given for O=C(O)c1cn(C2CC2)c2cc(N3CCC(O)(COc4ccc(N5C[C@H](CO)OC5=O)cc4F)CC3)c(F)cc2c1=O [CADAZOLID]?
Answer: bioavailability [1]: 0%; AUC(0-t) at 24 h [2]: 78 ng·h/mL; pKa [3]: 6; AUC(0-t) at 24 h [4]: 27 ng·h/mL; Drug metabolism [5]: Metabolite_Notdetected; Drug metabolism [6]: Metabolite_Notdetected; logD [7]: 1.2; Cmax [8]: 10 ng/mL; AUC(0-t) at 24 h [9]: 147 ng·h/mL; Cmax [10]: 12 ng/mL; Vdss [11]: 2 L/kg; CL/F [12]: 96 mL/min/kg; half-life [13]: 36 min; AUC(0-t) at 24 h [14]: 9 ng·h/mL; CL/F [15]: 65 mL/min/kg; Cmax [16]: 3 ng/mL; AUC(0-inf) [17]: 255 ng·h/mL; Cp [18]: 1 ng/mL; Cmax [19]: 6 ng/mL
